Measurements taken from ChEMBL document CHEMBL4507297, “Data for DCP probe PF-04457845” (2021).

Experiments:
[1] = system: Mast/stem cell growth factor receptor Kit (Homo sapiens), P10721 [A829P]; details: Compound concentration 1000.0 nM
[2] = biological target: NT-3 growth factor receptor (Homo sapiens) (UniProt Q16288); details: Compound concentration 1000.0 nM
[3] = biological target: D(1A) dopamine receptor (Homo sapiens) (UniProt P21728); details: Compound concentration 10.0 uM
[4] = biological target: Tyrosine-protein kinase Fes/Fps (Homo sapiens) (UniProt P07332); details: Compound concentration 1000.0 nM
[5] = biological target: T1, 5-hydroxytryptamine receptor 3A (Homo sapiens) (UniProt P46098); details: Compound concentration 10.0 uM
T1 sequence (whole entry): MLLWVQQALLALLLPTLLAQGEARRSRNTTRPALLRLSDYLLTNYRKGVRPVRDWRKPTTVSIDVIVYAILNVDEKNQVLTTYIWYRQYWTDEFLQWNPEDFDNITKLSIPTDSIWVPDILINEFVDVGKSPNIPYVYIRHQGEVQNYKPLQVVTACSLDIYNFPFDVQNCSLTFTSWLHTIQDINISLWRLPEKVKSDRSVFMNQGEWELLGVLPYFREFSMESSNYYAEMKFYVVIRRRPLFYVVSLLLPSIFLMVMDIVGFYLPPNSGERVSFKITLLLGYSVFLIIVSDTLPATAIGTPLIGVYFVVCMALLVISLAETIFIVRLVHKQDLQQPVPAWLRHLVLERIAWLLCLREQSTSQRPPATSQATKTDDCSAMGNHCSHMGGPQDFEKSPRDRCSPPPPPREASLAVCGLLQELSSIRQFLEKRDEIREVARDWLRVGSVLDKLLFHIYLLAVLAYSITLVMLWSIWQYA

[6] = biological target: Ribosomal protein S6 kinase alpha-1 (Homo sapiens) (UniProt Q15418); details: Compound concentration 1000.0 nM
[7] = biological target: Tyrosine-protein kinase Mer (Homo sapiens) (UniProt Q12866); details: Compound concentration 1000.0 nM
[8] = biological target: cGMP-dependent protein kinase 2 (Homo sapiens) (UniProt Q13237); details: Compound concentration 1000.0 nM
[9] = system: Hepatocyte growth factor receptor (Homo sapiens), P08581 [Y1235D]; details: Compound concentration 1000.0 nM
[10] = biological target: Tyrosine-protein kinase receptor Tie-1 (Homo sapiens) (UniProt P35590); details: Compound concentration 1000.0 nM
[11] = biological target: Receptor tyrosine-protein kinase erbB-2 (Homo sapiens) (UniProt P04626); details: Compound concentration 1000.0 nM
Chain of Receptor tyrosine-protein kinase erbB-2 (Homo sapiens) (P04626 whole entry): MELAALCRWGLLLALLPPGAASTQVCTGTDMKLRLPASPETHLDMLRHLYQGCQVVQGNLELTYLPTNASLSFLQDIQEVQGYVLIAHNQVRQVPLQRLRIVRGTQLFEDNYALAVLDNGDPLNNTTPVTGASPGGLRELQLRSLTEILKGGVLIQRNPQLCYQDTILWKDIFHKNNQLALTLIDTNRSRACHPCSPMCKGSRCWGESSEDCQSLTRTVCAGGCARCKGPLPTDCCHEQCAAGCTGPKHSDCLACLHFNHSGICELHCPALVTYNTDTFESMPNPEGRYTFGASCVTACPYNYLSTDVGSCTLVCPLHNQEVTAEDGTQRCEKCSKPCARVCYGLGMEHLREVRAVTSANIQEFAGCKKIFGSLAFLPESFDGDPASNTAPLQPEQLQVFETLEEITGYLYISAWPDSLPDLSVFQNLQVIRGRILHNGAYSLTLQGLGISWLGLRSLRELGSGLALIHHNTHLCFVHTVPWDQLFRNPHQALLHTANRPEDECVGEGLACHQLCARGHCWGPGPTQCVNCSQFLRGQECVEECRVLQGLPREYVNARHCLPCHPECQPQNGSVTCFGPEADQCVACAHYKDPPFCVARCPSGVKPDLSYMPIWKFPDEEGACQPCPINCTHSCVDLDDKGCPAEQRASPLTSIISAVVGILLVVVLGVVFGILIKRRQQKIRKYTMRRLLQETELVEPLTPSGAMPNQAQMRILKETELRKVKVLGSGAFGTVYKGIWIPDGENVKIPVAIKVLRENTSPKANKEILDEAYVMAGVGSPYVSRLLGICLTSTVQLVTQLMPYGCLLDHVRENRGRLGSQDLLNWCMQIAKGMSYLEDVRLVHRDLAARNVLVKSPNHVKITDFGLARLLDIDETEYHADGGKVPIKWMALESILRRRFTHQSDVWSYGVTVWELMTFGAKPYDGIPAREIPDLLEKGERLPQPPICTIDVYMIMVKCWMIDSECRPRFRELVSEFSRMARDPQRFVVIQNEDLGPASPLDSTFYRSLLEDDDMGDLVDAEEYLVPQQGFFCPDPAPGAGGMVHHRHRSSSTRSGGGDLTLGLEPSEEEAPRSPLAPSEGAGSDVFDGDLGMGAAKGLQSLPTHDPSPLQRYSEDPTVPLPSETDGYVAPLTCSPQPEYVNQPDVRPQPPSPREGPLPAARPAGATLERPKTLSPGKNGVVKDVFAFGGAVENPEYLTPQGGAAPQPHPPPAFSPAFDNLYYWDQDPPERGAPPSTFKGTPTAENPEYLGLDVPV

[12] = biological target: Dual specificity tyrosine-phosphorylation-regulated kinase 1B (Homo sapiens) (UniProt Q9Y463); details: Compound concentration 1000.0 nM
[13] = biological target: Serine/threonine-protein kinase RIO1 (Homo sapiens) (UniProt Q9BRS2); details: Compound concentration 1000.0 nM
[14] = system: Tyrosine-protein kinase ABL1 (Homo sapiens), P00519 [Q252H]; details: Compound concentration 1000.0 nM
[15] = biological target: Serine/threonine-protein kinase 24 (Homo sapiens) (UniProt Q9Y6E0); details: Compound concentration 1000.0 nM
Chain of Serine/threonine-protein kinase 24 (Homo sapiens) (Q9Y6E0 whole entry, looked up): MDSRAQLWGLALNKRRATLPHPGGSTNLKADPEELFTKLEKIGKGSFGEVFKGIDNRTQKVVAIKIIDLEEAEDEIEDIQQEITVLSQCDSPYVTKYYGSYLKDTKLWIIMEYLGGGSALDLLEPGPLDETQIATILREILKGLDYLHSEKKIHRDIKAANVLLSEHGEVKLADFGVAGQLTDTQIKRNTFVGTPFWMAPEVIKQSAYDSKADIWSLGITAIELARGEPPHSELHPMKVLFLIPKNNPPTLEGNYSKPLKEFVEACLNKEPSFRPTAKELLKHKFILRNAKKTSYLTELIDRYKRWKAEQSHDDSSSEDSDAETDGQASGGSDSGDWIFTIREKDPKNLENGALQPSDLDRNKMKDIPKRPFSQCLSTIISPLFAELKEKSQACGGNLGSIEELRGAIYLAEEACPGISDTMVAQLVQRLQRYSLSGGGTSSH

[16] = biological target: Focal adhesion kinase 1 (Homo sapiens) (UniProt Q05397); details: Compound concentration 1000.0 nM
[17] = biological target: Protein kinase C epsilon type (Homo sapiens) (UniProt Q02156); details: Compound concentration 1000.0 nM
[18] = biological target: Ribosomal protein S6 kinase alpha-3 (Homo sapiens) (UniProt P51812); details: Compound concentration 1000.0 nM
Chain of Ribosomal protein S6 kinase alpha-3 (Homo sapiens) (P51812 whole entry): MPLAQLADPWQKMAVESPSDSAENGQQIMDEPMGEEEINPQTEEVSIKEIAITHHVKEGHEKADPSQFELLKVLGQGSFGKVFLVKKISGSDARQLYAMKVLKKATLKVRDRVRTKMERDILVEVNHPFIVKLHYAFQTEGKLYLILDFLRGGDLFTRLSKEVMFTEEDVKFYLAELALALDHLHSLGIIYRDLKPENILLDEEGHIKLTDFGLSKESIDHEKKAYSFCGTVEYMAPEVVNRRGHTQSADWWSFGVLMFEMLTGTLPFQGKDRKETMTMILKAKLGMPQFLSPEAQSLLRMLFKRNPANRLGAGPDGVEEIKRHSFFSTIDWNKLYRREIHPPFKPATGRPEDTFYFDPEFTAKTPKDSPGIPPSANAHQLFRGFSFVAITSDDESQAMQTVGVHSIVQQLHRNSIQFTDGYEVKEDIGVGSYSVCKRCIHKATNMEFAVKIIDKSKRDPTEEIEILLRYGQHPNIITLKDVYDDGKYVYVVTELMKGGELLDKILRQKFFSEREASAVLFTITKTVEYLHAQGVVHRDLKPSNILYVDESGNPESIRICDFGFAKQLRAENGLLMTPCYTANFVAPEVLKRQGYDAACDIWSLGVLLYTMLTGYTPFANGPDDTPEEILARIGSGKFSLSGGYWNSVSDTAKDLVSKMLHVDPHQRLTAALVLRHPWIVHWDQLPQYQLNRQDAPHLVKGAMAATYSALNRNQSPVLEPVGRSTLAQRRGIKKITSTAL

[19] = biological target: Macrophage colony-stimulating factor 1 receptor (Homo sapiens) (UniProt P07333); details: Compound concentration 1000.0 nM
[20] = biological target: Ribosomal protein S6 kinase alpha-2 (Homo sapiens) (UniProt Q15349); details: Compound concentration 1000.0 nM
[21] = biological target: Serine/threonine-protein kinase Sgk2 (Homo sapiens) (UniProt Q9HBY8); details: Compound concentration 1000.0 nM
Chain of Serine/threonine-protein kinase Sgk2 (Homo sapiens) (Q9HBY8 whole entry): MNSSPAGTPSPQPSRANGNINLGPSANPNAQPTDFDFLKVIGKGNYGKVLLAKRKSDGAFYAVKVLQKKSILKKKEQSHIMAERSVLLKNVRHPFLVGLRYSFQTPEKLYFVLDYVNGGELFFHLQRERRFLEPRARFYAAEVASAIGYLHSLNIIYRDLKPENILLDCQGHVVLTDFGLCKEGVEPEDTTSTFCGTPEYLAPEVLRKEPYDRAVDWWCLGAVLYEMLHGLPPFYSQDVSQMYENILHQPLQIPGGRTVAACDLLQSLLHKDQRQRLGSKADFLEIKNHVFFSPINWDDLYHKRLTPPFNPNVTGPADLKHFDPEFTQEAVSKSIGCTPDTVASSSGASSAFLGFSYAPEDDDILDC

[22] = biological target: Bone morphogenetic protein receptor type-1B (Homo sapiens) (UniProt O00238); details: Compound concentration 1000.0 nM
[23] = system: Tyrosine-protein kinase ABL1 (Homo sapiens), P00519 [M351T]; details: Compound concentration 1000.0 nM
[24] = biological target: Myosin light chain kinase family member 4 (Homo sapiens) (UniProt Q86YV6); details: Compound concentration 1000.0 nM
[25] = biological target: Ribosomal protein S6 kinase alpha-5 (Homo sapiens) (UniProt O75582); details: Compound concentration 1000.0 nM
[26] = biological target: Mitogen-activated protein kinase 11 (Homo sapiens) (UniProt Q15759); details: Compound concentration 1000.0 nM
[27] = system: Phosphatidylinositol 4,5-bisphosphate 3-kinase catalytic subunit alpha isoform (Homo sapiens), P42336 [M1043I]; details: Compound concentration 1000.0 nM
Chain of Phosphatidylinositol 4,5-bisphosphate 3-kinase catalytic subunit alpha isoform (Homo sapiens), P42336 [M1043I] (P42336 whole entry M1043I, canonical isoform): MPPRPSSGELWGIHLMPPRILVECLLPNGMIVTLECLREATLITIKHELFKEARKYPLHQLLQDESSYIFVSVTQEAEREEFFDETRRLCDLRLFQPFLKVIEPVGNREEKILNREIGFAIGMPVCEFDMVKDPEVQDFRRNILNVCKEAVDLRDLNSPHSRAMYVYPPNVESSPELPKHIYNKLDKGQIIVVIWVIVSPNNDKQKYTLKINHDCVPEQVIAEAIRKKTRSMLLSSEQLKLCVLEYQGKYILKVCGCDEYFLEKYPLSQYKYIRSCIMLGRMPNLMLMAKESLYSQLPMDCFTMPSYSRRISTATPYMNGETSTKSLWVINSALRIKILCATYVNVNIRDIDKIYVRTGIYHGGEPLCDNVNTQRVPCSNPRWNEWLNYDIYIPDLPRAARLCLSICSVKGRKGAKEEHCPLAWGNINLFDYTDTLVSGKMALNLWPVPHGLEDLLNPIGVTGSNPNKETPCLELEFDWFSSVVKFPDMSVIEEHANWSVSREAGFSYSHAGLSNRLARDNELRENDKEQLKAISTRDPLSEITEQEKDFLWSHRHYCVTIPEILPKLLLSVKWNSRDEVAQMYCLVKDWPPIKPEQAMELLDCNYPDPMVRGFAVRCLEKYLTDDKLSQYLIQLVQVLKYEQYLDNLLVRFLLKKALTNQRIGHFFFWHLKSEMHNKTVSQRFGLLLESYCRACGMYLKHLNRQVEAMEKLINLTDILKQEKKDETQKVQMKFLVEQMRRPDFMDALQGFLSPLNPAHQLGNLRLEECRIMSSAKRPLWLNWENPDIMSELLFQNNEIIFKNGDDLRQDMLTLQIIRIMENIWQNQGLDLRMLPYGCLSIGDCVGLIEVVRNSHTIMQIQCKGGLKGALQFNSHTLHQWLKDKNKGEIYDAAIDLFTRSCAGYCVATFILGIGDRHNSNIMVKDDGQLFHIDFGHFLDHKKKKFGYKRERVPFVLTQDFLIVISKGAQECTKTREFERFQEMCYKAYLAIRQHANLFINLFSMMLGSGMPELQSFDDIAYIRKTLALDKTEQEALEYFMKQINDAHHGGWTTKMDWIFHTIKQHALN

[28] = biological target: Calcium/calmodulin-dependent protein kinase kinase 1 (Homo sapiens) (UniProt Q8N5S9); details: Compound concentration 1000.0 nM
[29] = biological target: Tyrosine-protein kinase JAK2 (Homo sapiens) (UniProt O60674); details: Compound concentration 1000.0 nM
[30] = biological target: Cyclin-dependent kinase 17 (Homo sapiens) (UniProt Q00537); details: Compound concentration 1000.0 nM
[31] = biological target: Serine/threonine-protein kinase PLK2 (Homo sapiens) (UniProt Q9NYY3); details: Compound concentration 1000.0 nM
[32] = biological target: Receptor-interacting serine/threonine-protein kinase 1 (Homo sapiens) (UniProt Q13546); details: Compound concentration 1000.0 nM
Chain of Receptor-interacting serine/threonine-protein kinase 1 (Homo sapiens) (Q13546 whole entry, canonical isoform): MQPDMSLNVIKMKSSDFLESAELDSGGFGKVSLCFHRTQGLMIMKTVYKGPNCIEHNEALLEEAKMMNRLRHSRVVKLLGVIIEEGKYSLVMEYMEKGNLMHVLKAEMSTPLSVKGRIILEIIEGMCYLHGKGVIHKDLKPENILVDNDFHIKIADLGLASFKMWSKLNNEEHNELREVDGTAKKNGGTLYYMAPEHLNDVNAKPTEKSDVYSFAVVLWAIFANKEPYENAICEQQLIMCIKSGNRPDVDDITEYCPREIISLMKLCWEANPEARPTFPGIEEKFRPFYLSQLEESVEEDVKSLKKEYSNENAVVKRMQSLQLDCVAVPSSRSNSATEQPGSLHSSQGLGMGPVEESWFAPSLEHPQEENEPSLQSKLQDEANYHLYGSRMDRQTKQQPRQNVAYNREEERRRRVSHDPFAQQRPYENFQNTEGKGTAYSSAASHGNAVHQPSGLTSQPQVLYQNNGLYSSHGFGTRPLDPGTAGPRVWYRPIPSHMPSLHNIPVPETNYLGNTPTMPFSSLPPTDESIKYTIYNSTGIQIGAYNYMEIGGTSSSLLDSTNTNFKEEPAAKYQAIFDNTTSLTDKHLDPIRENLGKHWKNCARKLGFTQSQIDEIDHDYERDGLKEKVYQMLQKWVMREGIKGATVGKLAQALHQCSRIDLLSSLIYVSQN

[33] = biological target: Casein kinase I isoform epsilon (Homo sapiens) (UniProt P49674); details: Compound concentration 1000.0 nM
Chain of Casein kinase I isoform epsilon (Homo sapiens) (P49674 whole entry, looked up, canonical isoform): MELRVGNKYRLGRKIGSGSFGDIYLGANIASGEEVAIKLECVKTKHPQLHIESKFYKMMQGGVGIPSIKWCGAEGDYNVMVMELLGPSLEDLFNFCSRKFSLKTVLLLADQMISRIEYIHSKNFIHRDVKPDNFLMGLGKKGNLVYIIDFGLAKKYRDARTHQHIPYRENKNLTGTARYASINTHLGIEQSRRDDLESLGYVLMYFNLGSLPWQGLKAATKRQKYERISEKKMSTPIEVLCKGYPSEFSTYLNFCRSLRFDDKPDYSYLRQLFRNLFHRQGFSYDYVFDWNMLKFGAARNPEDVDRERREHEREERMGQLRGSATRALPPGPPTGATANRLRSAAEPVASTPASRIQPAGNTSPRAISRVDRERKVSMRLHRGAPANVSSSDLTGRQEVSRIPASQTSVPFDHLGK

[34] = biological target: 3-phosphoinositide-dependent protein kinase 1 (Homo sapiens) (UniProt O15530); details: Compound concentration 1000.0 nM
[35] = biological target: Casein kinase I isoform delta (Homo sapiens) (UniProt P48730); details: Compound concentration 1000.0 nM
[36] = biological target: Serine/threonine-protein kinase DCLK1 (Homo sapiens) (UniProt O15075); details: Compound concentration 1000.0 nM
[37] = biological target: Ribosomal protein S6 kinase alpha-6 (Homo sapiens) (UniProt Q9UK32); details: Compound concentration 1000.0 nM
[38] = system: Proto-oncogene tyrosine-protein kinase receptor Ret (Homo sapiens), P07949 [M918T]; details: Compound concentration 1000.0 nM
[39] = biological target: Mitogen-activated protein kinase 3 (Homo sapiens) (UniProt P27361); details: Compound concentration 1000.0 nM

O=C(Nc1cccnn1)N1CC(C/C=C/c2cncc(Oc3ccc(C(F)(F)F)cn3)n2)C1
inactive: residual activity [1] 59% | residual activity [2] 85% | inhibition [3] 1.14% | residual activity [4] 91% | inhibition [5] -0.28% | residual activity [6] 100% | residual activity [7] 100% | residual activity [8] 91% | residual activity [9] 100% | residual activity [10] 100% | residual activity [11] 83% | residual activity [12] 100% | residual activity [13] 100% | residual activity [14] 81% | residual activity [15] 98% | residual activity [16] 100% | residual activity [17] 100% | residual activity [18] 89% | residual activity [19] 87% | residual activity [20] 100% | residual activity [21] 74% | residual activity [22] 91% | residual activity [23] 67% | residual activity [24] 100% | residual activity [25] 100% | residual activity [26] 100% | residual activity [27] 100% | residual activity [28] 100% | residual activity [29] 88% | residual activity [30] 100% | residual activity [31] 60% | residual activity [32] 100% | residual activity [33] 100% | residual activity [34] 97% | residual activity [35] 100% | residual activity [36] 84% | residual activity [37] 89% | residual activity [38] 96% | residual activity [39] 99%

O=C(Nc1cccnn1)N1CCC(=Cc2cccc(Oc3ccc(C(F)(F)F)cn3)c2)CC1
inactive: residual activity [1] 96% | residual activity [2] 100% | inhibition [3] -3.23% | residual activity [4] 76% | inhibition [5] 10.7% | residual activity [6] 100% | residual activity [7] 81% | residual activity [8] 100% | residual activity [9] 100% | residual activity [10] 100% | residual activity [11] 72% | residual activity [12] 100% | residual activity [13] 100% | residual activity [14] 99% | residual activity [15] 100% | residual activity [16] 100% | residual activity [17] 82% | residual activity [18] 100% | residual activity [19] 100% | residual activity [20] 80% | residual activity [21] 100% | residual activity [22] 88% | residual activity [23] 99% | residual activity [24] 100% | residual activity [25] 83% | residual activity [26] 83% | residual activity [27] 65% | residual activity [28] 92% | residual activity [29] 100% | residual activity [30] 100% | residual activity [31] 100% | residual activity [32] 97% | residual activity [33] 100% | residual activity [34] 85% | residual activity [35] 100% | residual activity [36] 100% | residual activity [37] 100% | residual activity [38] 80% | residual activity [39] 100%
